Results from patent publication US9079922B2, “2-oxo-oxazolidin-3,5-diyl antibiotic derivatives” (priority 2011, dated 2015).
≈ marks a conversion by molar mass, not a printed value.

Legend:
[1] = tested on: Acinetobacter baumanii T6474; assay: Bacterial growth minimal inhibitory concentration (microdilution, cation-adjusted Mueller-Hinton Broth); assay type: cell-based; conditions: Acinetobacter baumannii, multiply-resistant strain, in particular quinolone resistant
Protocol: (§1) Bacterial Growth Minimal Inhibitory Concentrations:
(§2) Minimal inhibitory concentrations (MICs; mg/l) were determined in cation-adjusted Mueller-Hinton Broth by a microdilution method following the description given in “Methods for Dilution Antimicrobial Susceptibility Tests for Bacteria that Grow Aerobically”, Approved standard, 7th ed., Clinical and Laboratory Standards Institute (CLSI) Document M7-A7, Wayne, Pa., USA, 2006.
(§3) All Example compounds were tested against several Gram positive and Gram negative bacteria. Staphylococcus aureus A798 and Acinetobacter baumanii T6474 are multiply-resistant strains, in particular quinolone resistant.

[2] = tested on: Staphylococcus aureus A798; assay: as above; assay type: cell-based; conditions: multiply-resistant strain, in particular quinolone resistant, read-out: MIC for S. aureus A798
Protocol: as §1, §2, §3

Row | MIC [1] | MIC [2] | SMILES
1 | ≤ 0.016 µg/mL | ≤ 0.016 µg/mL | Cn1cc(C(=O)O)c(=O)c2cc(F)c(N3CC(NC[C@@H]4CN(c5ccc6c(n5)NC(=O)CO6)C(=O)O4)C3)nc21 [Example 12, 6-fluoro-1-methyl-4-oxo-7-(3-{[(R)-2-oxo-3-(3-oxo-3,4-dihydro-2H-pyrido[3,2-b][1,4]oxazin-6-yl)-oxazolidin-5-ylmethyl]-amino}-azetidin-1-yl)-1,4-dihydro-[1,8]naphthyridine-3-carboxylic acid]
2 | 1 µg/mL (≈ 1.86 µM) | ≤ 0.016 µg/mL | O=C1CSc2ccc(N3C[C@@H](CNC4CN(c5nc6c(cc5F)c(=O)ccn6C5CC5)C4)OC3=O)cc2N1 [Example 5, 6-((R)-5-{[1-(8-cyclopropyl-3-fluoro-5-oxo-5,8-dihydro-[1,8]naphthyridin-2-yl)-azetidin-3-ylamino]-methyl}-2-oxo-oxazolidin-3-yl)-4H-benzo[1,4]thiazin-3-one]
3 | ≤ 0.016 µg/mL | ≤ 0.016 µg/mL | O=C1COc2ccc(N3C[C@@H](CNC4CCN(c5nc6c(cc5F)c(=O)c(C(=O)O)cn6C5CC5)CC4)OC3=O)nc2N1 [Example 17, 1-cyclopropyl-6-fluoro-4-oxo-7-(4-{[(R)-2-oxo-3-(3-oxo-3,4-dihydro-2H-pyrido[3,2-b][1,4]oxazin-6-yl)-oxazolidin-5-ylmethyl]-amino}-piperidin-1-yl)-1,4-dihydro-[1,8]naphthyridine-3-carboxylic acid]
4 | 0.125 µg/mL (≈ 0.211 µM) | ≤ 0.016 µg/mL | O=C1CSc2ccc(N3C[C@@H](CN4CCN(c5cc6c(cc5F)c(=O)c(C(=O)O)cn6C5CC5)CC4)OC3=O)cc2N1 [Example 1, 1-cyclopropyl-6-fluoro-4-oxo-7-{4-[(R)-2-oxo-3-(3-oxo-3,4-dihydro-2H-benzo[1,4]thiazin-6-yl)-oxazolidin-5-ylmethyl]-piperazin-1-yl}-1,4-dihydro-quinoline-3-carboxylic acid]
5 | 0.125 µg/mL (≈ 0.215 µM) | ≤ 0.016 µg/mL | O=C1CSc2ccc(N3C[C@@H](CNC4CN(c5nc6c(cc5F)c(=O)c(C(=O)O)cn6C5CC5)C4)OC3=O)cc2N1 [Example 2, 1-cyclopropyl-6-fluoro-4-oxo-7-(3-{[(R)-2-oxo-3-(3-oxo-3,4-dihydro-2H-benzo[1,4]thiazin-6-yl)-oxazolidin-5-ylmethyl]-amino}-azetidin-1-yl)-1,4-dihydro-[1,8]naphthyridine-3-carboxylic acid]

Row | SMILES | MIC [1] | MIC [2]
6 | O=C(O)c1cn(C2CC2)c2cc(N3CCNCC3)c(F)cc2c1=O [Cipro, ciprofloxacin, reference compound] | > 32 µg/mL | > 32 µg/mL
